Measurements published in US12533385B2, “Use of mulberry twig alkaloids in preparation of drug for treating polycystic ovarian syndrome” (priority 2022, dated 2026).

Test system: LZ+HFD-induced PCOS model
Assay: Pharmacodynamic experiment of mulberry extract on LZ+HFD-induced PCOS model (Experimental Example 11, incl. expanded scale)
Type: in vivo, SD rats
Conditions: Met. 125 mg/kg/d, expanded scale 18 rats/group, monitored 10 days from day 10 of treatment; model group 97%, blank about 59%
Experimental: Test methods for the hormones are as follows: • E2: estradiol radioimmunoassay KIT—HTA Co., Ltd. (SFDA approval No.: 520033010); • LH: Iodine[^125I] Human Luteinizing Hormone Radioimmunoassay Kit (SFDA approval No.: 510950161); • PRL: Iodine[^125I] Prolactin Radioimmunoassay Kit (SFDA approval No.: S10950161); • T: Iodine[^125I] Testosterone Radioimmunoassay Kit (SFDA approval No.: S10940093); • ADP, GnRH, SHBG, and AMH in serum of each animal were tested using Elisa kits; • P: Progesterone Radioimmunoassay Kit—Union Medical & Pharmaceutical Technology (Tianjin) Co., Ltd. (SFDA approval No.: S10950202).
The drugs were formulated as same as in Experimental Example 10.
Eighteen 3-week-old female SD rats with good health and shiny fur were selected and adaptively fed for 3 days, and then randomized into a blank group, a model group, and a dosing group. After fed with high-fat diets for 3 weeks, the rats in the model group and the dosing group were administered with LZ (1 mg/kg/d) via gavage for 6 weeks, while being fed with HFD (high-fat diets (research diets D12492)), and the PCOS rat models were constructed. After the models were evaluated as success, the rats in the dosing group were administered according to the dosage and mode listed in the table, during which an equal amount of normal saline was given to the blank group and the model group. […]

How did the “share of diestrus/metestrus in the estrous cycle” value turn out when CN(C)C(=N)N=C(N)N [Met., Metformin] was run?
Its value is 74%.
